Columns and labels:
Assay type in all cases: cell-based, rat
[1] = tested on: optic nerve oligodendrocytes; assay: Gene expression profiling, control vs 1-day MECA-treated ON-oligodendrocytes; details: p-value <0.05, 1.2 fold-change cutoff
Method: Based on the results obtained with rhoA expression, 24 hours was selected as the first time point in a broader gene expression analysis. Total RNA was isolated from control, and MECA-stimulated oligodendrocytes were harvested 24 hours after the addition of MECA. RNA samples were generated in triplicate, each replicate generated by pooling RNA from three separate oligodendrocyte preps (one prep from 12 litters (10 pups each) of post-natal day 5 SD pups). RNA samples were analyzed by gene expression profiling using the Affymetrix GeneChip™ Rat genome 230 2.0 Array that provides coverage of approximately 30,000 transcripts, i.e., the entire transcribed rat genome. RNA submitted was amplified by Expression Analysis using the MessageAmp II aRNA kit from Ambion to generate sufficient amounts of RNA for hybridization to arrays. A2B5 and cells were plated in 6-well plates and allowed to divide for 48 hours. Approximately 500,000 cells were plated per well. Two micrograms of RNA was subsequently used for analysis.
To identify gene expression changes occurring during myelination, total RNA was isolated from control and MECA-stimulated oligodendrocytes 24 hours after the addition of MECA. RNA samples were generated in triplicate, each replicate generated by pooling RNA from three separate oligodendrocyte preps. RNA samples (2 μg/sample) were submitted to Expression Analysis for gene expression profiling using the Affymetrix GeneChip™ Rat genome 230 2.0 Array that provides coverage of approximately 30,000 transcripts. RNA submitted using the MessageAmp II aRNA kit from Ambion to generate sufficient amounts of RNA for hybridization to arrays.

[2] = tested on: optic nerve oligodendrocytes; assay: In vitro myelination assay: co-culture of retinal ganglion cells and optic nerve oligodendrocytes
Method: Co-cultures of RGCs and optic nerve oligodendrocytes were prepared and used as follows. Purified oligodendrocytes were plated on PDL/merosin (Chemicon) substrate-coated tissue culture dishes in defined DMEM Sato medium, promoting proliferation for two days. After 2 days, the medium was switched to defined DMEM Sato medium, which contained factors to promote differentiation. Twenty-four hours after the switch to differentiation medium, ADORA1 agonists were added. Retinal ganglion cells were plated 24 hours thereafter, and the medium consisted of 50% astrocyte-conditioned medium (method see above) with DMEM Sato medium mixed with fresh defined Neurobasal™ (Invitrogen) Sato medium, containing B27™ supplement and growth factors (BDNF and CNTF), to promote retinal ganglion cell survival and 0.5% FBS. The FBS was added to help retinal ganglion cell survival. This is because forskolin, which up-regulates cAMP, could not be used when adding any ADORA agonists or antagonists, since these receptors are G-protein-coupled receptors and therefore, regulators of cAMP themselves. Cultures were grown for two weeks, with medium changes occurring every three days.
Optic nerve or cortical oligodendrocytes were purified from postnatal day 2-day 5 old rat pups by immuno-panning with the A2B5 antibody (ATCC). Retinal ganglion cells were purified from 5 day old rats by immunopanning with the Thy1 antibody T11D7.
Purified oligodendrocytes were plated on PDL/merosin substrate-coated tissue culture dishes in defined DMEM Sato medium, promoting proliferation for two days. After 2 days, the medium was switched to defined DMEM Sato medium, containing factors promoting differentiation. Twenty-four hours after the switch to differentiation medium, ADORA1 agonists were added. Retinal ganglion cells were plated 24 hours thereafter, and medium consisted of astrocyte-conditioned medium with DMEM Sato medium mixed with defined Neurobasal™ Sato medium, containing growth factors promoting retinal ganglion cell survival and 0.5% FBS.
Cultures were grown for two weeks, with medium changes occurring every three days. Control co-cultures were devoid of myelin segments, whereas oligodendrocytes co-cultures with ADORA1 agonist contained myelin segments originating from approximately 90% of the oligodendrocytes in these cultures.
To address whether the effect of the adenosine 1 receptor (ADORA1) agonist only affects oligodendrocytes, or also affects retinal ganglion cells (RGCs) to lead to myelination, purified rat optic nerve oligodendrocytes were plated on PEI-pre-coated culture dishes (6-well plates, Falcon BD) in mitogenic medium and cultured for two days. After two days, oligodendrocytes were switched to differentiation medium and the agonist MECA (Sigma) was added at a 200 μM concentration to this culture medium 24 hours later. The agonist was removed by washing the cells at 24, 48 and 72 hours, respectively, after its administration. Oligodendrocytes were subsequently taken off the PEI plates by incubation with Trypsin (535 units/ml) in Earle's Balanced Salt Solution (EBSS; Invitrogen) at 37° C. for 5 minutes, washed with PBS containing 30% FBS (Hyclone) and were plated onto RGCs grown for one week on PDL/merosin substrate. Cultures were fixed for immunohistochemistry two weeks after co-plating the oligodendrocytes with the RGCs. Since the oligodendrocytes were pre-incubated separately with the ADORA1 agonist before they were added to the RGCs, the myelin figures observed in FIG. 6 are due to the switch in the oligodendrocytes themselves from a non-myelinating to a myelinating phenotype.
To address the question of whether it is a permanent or a reversible switch if the oligodendrocytes are cultured without neurons, oligodendrocytes were treated with ADORA1 agonist for 72 hours and kept in culture alone for another 5 days. Cultured oligodendrocytes were then removed from the PEI-coated plate and co-cultured with RGCs grown for one week in culture. […]

[3] = tested on: MOG surface expression in cortical oligodendrocytes; assay: MOG cell surface label, cortical oligodendrocytes (time course and dose response)
Method: Purified rat optic nerve and enriched rat cortical oligodendrocytes were first grown in mitogenic medium and then switched to differentiation medium. Stimulated oligodendrocytes received the ADORA1 agonist, MECA, 24 hours later. Optic nerve oligodendrocytes were assessed 2, 4, and 6 days post MECA treatment, cortical oligodendrocytes, 3, 5, and 7 days post treatment. For the MOG cell surface label, cells were incubated with the anti-MOG antibody (1 μg/ml) for one hour at room temperature in phosphate buffered saline (PBS) containing sodium-pyruvate and glucose (Invitrogen) to ensure survival of cells during this time. Subsequently the cells were fixed, incubated in PBS containing 50% goat serum at RT for 30 minutes and incubated with a secondary antibody (FITC- or Cy3-coupled goat anti-mouse IgG antibody from Jackson Immunoresearch).
To determine whether the surface expression of MOG would follow the same time course as that observed for the ADORA1 agonist, MECA, in the optic nerve myelination system, oligodendrocyte-enriched cortical cells were plated on PEI-coated plates in mitogenic medium, containing PDGFAA, and NT3 as factors stimulating proliferation. After 3 days, cells were switched to differentiation medium containing CNTF and NT3. 200 μM MECA was added either the same day or 24 hours later and was incubated on the cells for 24 hours, 48 hours, 72 hours, 4 days, and 7 days continuously. The cells were surface-labeled with an antibody to MOG, after the described incubation. For the ADORA1 agonist dose response experiment, MECA was added at concentrations of 200 μM, 100 μM, 50 μM, 25 μM and 12.5 μM, 24 hours after switching to differentiation medium, and was incubated on the cells continuously. On day 7, cells were surface-labeled with an anti-MOG antibody.

CNC(=O)[C@H]1O[C@@H](n2cnc3c(N)ncnc32)[C@H](O)[C@@H]1O [MECA, 5′-N-methylcarboxamidoadenosine]
overlap of differentially regulated genes between ON- and cortical oligodendrocytes [1]: 414 genes
total differentially regulated genes in the group comparison [1]: 1831 genes
genes exclusive to ON-oligodendrocytes ([1]; versus cortical oligodendrocytes): 1417 genes
amount of myelin figures with continuous agonist ([2]; MECA present throughout the two weeks of co-culture with RGCs): optimal amount of myelin figures
myelin formation versus control cultures ([2]; after eight days in co-culture): myelin was observed covering the whole length of an axon
myelin formation versus control cultures ([2]; after five days in co-culture): no significant difference
myelin formation versus control cultures ([2]; after two weeks in co-culture): the segments (internodes) form
switch from non-myelinating to myelinating phenotype: permanent or reversible ([2]; agonist 72 hours, then 5 days in culture alone, then co-culture with RGCs two weeks): permanent switch
doses that would not produce myelin segments ([2]; optic nerve myelination system dose-response): below 100 μM
time MECA must be present to repress MOG surface expression ([3]; 200 μM MECA): at least 72 hours
MOG protein expression on the cell surface ([3]; after 7 days, control oligodendrocytes up-regulated MOG): remained low
concentrations insufficient to repress MOG surface expression ([3]; continuous incubation, surface label on day 7): below 100 μM

— patent US20060183147A1, “Methods of identifying genes which modulate myelination” (Elan Pharmaceuticals, Inc., priority 2005, published 2006)
